Measured values reported in US20230150951A1, “2,5- OR 2,6-DISUBSTITUTED HYDROQUINONE DERIVATIVES WITH AT LEAST ONE CARBOXY, SULFO OR AMIDO GROUP USEFUL AS MEDICAMENTS” (OM PHARMA SA, priority 2020, published 2023).
pIC50: −log10 of the molar value. Read-outs that look alike come from different tables or passages of the source.

Tests used:
Assay type in all cases: cell-based
IL-5 = assay: Cytokine release after LPS induction on human whole blood: IL-5
Protocol: (§1) Aim of this in vitro method is to assess compounds effects on release of a panel of cytokines from whole blood following lipopolysaccharide (LPS) induced inflammatory reaction. Whole blood was incubated with compounds for 1 h prior to LPS induction. Cytokine levels in blood were measured using a multiplex FACS-based panel.
(§2) IC50 values determined for the tested compounds expressed in microM [μM] and the values for the inhibition of cytokines were listed for each compound.
(§3) Effect on cytokines release after LPS induction was performed on the compounds dissolved in DMSO or H2O to reach 10-fold concentrated stock solutions and dissolved in culture media.
(§4) Test system: Whole blood was removed from a single donor (into lithium heparin coated tubes; BD Vacutainer; 367886) and diluted 1:5 with RPMI 1640 (Thermo Fisher, 61870036). Within 30 minutes of sampling, blood was incubated with compounds for 1 h prior to LPS stimulation (O111:B4—Sigma L4391; 10 ng/ml final concentration). Stimulation continued under standard cell culture conditions (37° C. with 5% CO2) overnight (18 h), after which plates were centrifuged and supernatant removed and frozen at −80° C. until used for analyses.
(§5) Dilution of test compounds: 10×concentrated solutions (concerning to the final assay concentrations) of each test compound were prepared with the appropriate solvent (in DMSO or in water). These 10× compound solutions (10 μl) were then added to 90 μl pre-diluted whole blood (whole blood: RPMI1640, 1:5) resulting in the final assay concentration.
(§6) Test method: Diluted whole blood (80 μl) was pre-incubated with compounds (10 μl) to give final assay concentrations of 100, 30, 10, 3, 1, 0.3 and 0.1×10^−6M. Blood was incubated at 37° C. with 5% CO2 for 1 h. LPS was diluted in cell culture media to a concentration of […]; 10 μl was added to the whole blood to give a final concentration of 10 ng/ml. Plates were incubated at 37° C. for 18 h. Plates were centrifuged at 3,000 RPM for 5 minutes at 4° C. and supernatant removed and frozen at −80° C. until FACS analysis was carried out.
(§7) Cytokine release was measured using a custom multiplex system (ELISA Genie) according to manufacturers instructions. Prepared samples were run on an Attune NxT flow cytometer (Thermo Fisher).
(§8) Quantification of cytokine release inhibition: known concentration standards were run as part of the cytokine panel to allow quantification of each cytokine concentration in each sample. This was carried out using FCAP Array v3.0 software.
(§9) Results: The dose response relationship on cytokine release following LPS induction of inflammatory response in whole blood was assessed for all compounds. IC50 values were determined for each compound for a panel of cytokines (GM-CSF, IFN-gamma, IL-1beta, IL-2, IL-4, IL-5, IL-6, IL-8, IL-9, IL-10, IL-12p40, IL-13, IL-17A, IL-17F, IL-18, IL-21, IL-22, IL-33, TGF-beta, TNF-alpha, TNF-beta).

IL-17A = assay: Cytokine release after LPS induction on human whole blood: IL-17A
Protocol: as §1, §2, §3, §4, §5, §6, §7, §8, §9

IL-2 = assay: Cytokine release after LPS induction on human whole blood: IL-2
Protocol: as §1, §2, §3, §4, §5, §6, §7, §8, §9

TNF-beta = assay: Cytokine release after LPS induction on human whole blood: TNFβ
Protocol: as §1, §2, §3, §4, §5, §6, §7, §8, §9

IL-4 = assay: Cytokine release after LPS induction on human whole blood: IL-4
Protocol: as §1, §2, §3, §4, §5, §6, §7, §8, §9

IL-10 = assay: Cytokine release after LPS induction on human whole blood: IL-10
Protocol: as §1, §2, §3, §4, §5, §6, §7, §8, §9

Human neutrophils = assay: Inhibition of ROS production in human neutrophils (isoluminol chemiluminescence); conditions: Homo sapiens, Neutrophil, fMLP+TNF-α stimulated PMN
Summary of the method: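 Neutrophils from healthy-donor buffy coats (3×10^6/ml in HBSS with Ca/Mg) pre-incubated 30 min at 37° C with compound (0.1–10 μM), primed with TNF-α 20 ng/ml for 10 min, then added to fibrinogen-coated wells. Isoluminol/HRP chemiluminescence recorded every 25 sec for 250 sec after fMLP (1 μM), background-subtracted.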

IFN-gamma = assay: Cytokine release after LPS induction on human whole blood: IFNγ
Protocol: as §1, §2, §3, §4, §5, §6, §7, §8, §9

IL-13 = assay: Cytokine release after LPS induction on human whole blood: IL-13
Protocol: as §1, §2, §3, §4, §5, §6, §7, §8, §9

[1] = Homo sapiens, LPS 10 ng/ml, 18 h, read-out: Whole Blood: IL-5 IC50
[2] = human whole blood, inhibition of LPS induced inflammation, read-out: IC50 IL-5
[3] = Homo sapiens, LPS 10 ng/ml, 18 h, read-out: Whole Blood: IL-17A IC50
[4] = human whole blood, inhibition of LPS induced inflammation, read-out: IC50 IL-17A
[5] = Homo sapiens, LPS 10 ng/ml, 18 h, read-out: Whole Blood: IL-2 IC50
[6] = human whole blood, inhibition of LPS induced inflammation, read-out: IC50 IL-2
[7] = Homo sapiens, LPS 10 ng/ml, 18 h, read-out: Whole Blood: TNF β IC50
[8] = human whole blood, inhibition of LPS induced inflammation, read-out: IC50 β
[9] = Homo sapiens, LPS 10 ng/ml, 18 h, read-out: Whole Blood: IL-4 IC50
[10] = human whole blood, inhibition of LPS induced inflammation, read-out: IC50 IL-4
[11] = Homo sapiens, LPS 10 ng/ml, 18 h, read-out: Whole Blood: IL-10 IC50
[12] = human whole blood, inhibition of LPS induced inflammation, read-out: IC50 IL-10
[13] = Homo sapiens, LPS 10 ng/ml, 18 h, read-out: Whole Blood: IFNγ IC50
[14] = human whole blood, inhibition of LPS induced inflammation, read-out: IC50 IFNγ
[15] = Homo sapiens, LPS 10 ng/ml, 18 h, read-out: Whole Blood: IL-13 IC50
[16] = human whole blood, inhibition of LPS induced inflammation, read-out: IC50 IL-13

pIC50 (IL-5; [1]) | pIC50 (IL-5; [2]) | pIC50 (IL-17A; [3]) | pIC50 (IL-17A; [4]) | pIC50 (IL-2; [5]) | pIC50 (IL-2; [6]) | pIC50 (TNF-beta; [7]) | pIC50 (TNF-beta; [8]) | pIC50 (IL-4; [9]) | pIC50 (IL-4; [10]) | pIC50 (IL-10; [11]) | pIC50 (IL-10; [12]) | pIC50 (Human neutrophils) | pIC50 (IFN-gamma; [13]) | pIC50 (IFN-gamma; [14]) | pIC50 (IL-13; [15]) | pIC50 (IL-13; [16]) | SMILES | inhibition at 0.3 µM (Human neutrophils) [%] | further results
< 4.00 | 4.00 | 7.30 | 7.30 | 5.15 | 5.15 | 6.52 | 6.52 | < 4.00 | 4.00 | 5.28 | 5.28 | 6.41 | < 4.00 | 4.00 | 6.82 | 6.82 | O=C(O)c1cc(NC(=O)c2cc(O)c(C(=O)O)cc2O)cc(C(=O)O)c1 [Ia-015a, 5-(4-carboxy-2,5-dihydroxybenzamido)isophthalic acid] | 43.8 | –
< 4.00 | 4.00 | 7.00 | 7.00 | 5.42 | 5.42 | 4.23 | 4.23 | < 4.00 | 4.00 | 4.79 | 4.79 | 6.54 | 4.97 | 4.97 | 4.25 | 4.25 | O=C(O)c1cc(O)cc(CSCc2cc(O)cc(C(=O)O)c2O)c1O [IVc-058a, 3-((2,5-Dihydroxy-3-carboxyphenyl)methylthiomethyl)-2,5-dihydroxybenzoic acid] | 77 | –
< 4.00 | 4.00 | 6.38 | 6.38 | 5.56 | 5.56 | 4.31 | 4.31 | < 4.00 | 4.00 | < 4.00 | 4.00 | 5.97 | 5.65 | 5.65 | < 4.00 | 4.00 | O=C(O)c1cc(NC(=O)c2cc(O)c(C(=O)O)cc2O)cc(NC(=O)c2cc(O)c(C(=O)O)cc2O)c1 [Ib-010a, 3,5-bis(2,5-dihydroxy-4-carboxybenzoylamino)benzoic acid] | 71.8 | –
< 4.00 | 4.00 | 7.05 | 7.05 | 4.89 | 4.89 | 4.53 | 4.53 | < 4.00 | 4.00 | 5.72 | 5.72 | 5.62 | 6.36 | 6.36 | 4.06 | 4.06 | O=C(O)c1cc(O)c(C(=O)Nc2ccccc2S(=O)(=O)O)cc1O [Ia-001c, 2,5-dihydroxy-4-(2-sulfophenylaminocarbonyl)benzoic acid] | 40.4 | –
< 4.00 | 4.00 | 7.70 | 7.70 | 4.98 | 4.98 | 4.71 | 4.71 | < 4.00 | 4.00 | 4.77 | 4.77 | 5.38 | 5.46 | 5.46 | 4.73 | 4.73 | COC(=O)c1cc(OC(C)=O)cc(CS(=O)(=O)Cc2cc(OC(C)=O)cc(C(=O)OC)c2OC(C)=O)c1OC(C)=O [IVc-059a-E2-A4] | 29.2 | –

Second part, the compound before the results:

SMILES | pIC50 (IL-5; [1]) | pIC50 (IL-5; [2]) | pIC50 (IL-17A; [3]) | pIC50 (IL-17A; [4]) | pIC50 (IL-2; [5]) | pIC50 (IL-2; [6]) | pIC50 (TNF-beta; [7]) | pIC50 (TNF-beta; [8]) | pIC50 (IL-4; [9]) | pIC50 (IL-4; [10]) | pIC50 (IL-10; [11]) | pIC50 (IL-10; [12]) | pIC50 (Human neutrophils) | pIC50 (IFN-gamma; [13]) | pIC50 (IFN-gamma; [14]) | pIC50 (IL-13; [15]) | pIC50 (IL-13; [16]) | inhibition at 0.3 µM (Human neutrophils) [%] | further results
O=C(O)c1cc(O)c(CN(Cc2cc(O)c(C(=O)O)cc2O)Cc2cc(O)c(C(=O)O)cc2O)cc1O [IIIc-061a, Tris(4-carboxy-2,5-dihydroxyphenylmethyl)amine] | < 4.00 | 4.00 | 7.40 | 7.40 | < 4.00 | 4.00 | 6.09 | 6.09 | < 4.00 | 4.00 | 4.75 | 4.75 | – | 5.61 | 5.61 | 6.51 | 6.51 | 92.5 | –
O=C(O)Cc1cc(O)c(C(=O)Nc2ccccc2-c2nnn[nH]2)cc1O [IIIa-001aTz] | < 4.00 | 4.00 | 6.77 | 6.77 | < 4.00 | 4.00 | 6.64 | 6.64 | < 4.00 | 4.00 | 5.11 | 5.11 | – | 4.72 | 4.72 | 6.82 | 6.82 | 69.3 | –
O=C(O)c1cc(NC(=O)c2cc(O)c(C(=O)Nc3ccccc3-c3nnn[nH]3)cc2O)ccc1O [Ic-001a-Tz/004a, 5-(4-(2-(1H-tetrazol-5-yl)phenylaminocarbonyl)-2,5-dihydroxybenzamido)-2-hydroxy benzoic acid] | – | – | – | – | – | – | – | – | – | – | – | – | – | – | – | – | – | 82.8 | pIC50 (IL-5; Homo sapiens, 18 h, read-out: Whole Blood: IL-5 IC50): < 4.00; pIC50 (IL-5; Homo sapiens, read-out: IC50 IL-5): 4.00; pIC50 (IL-17A; Homo sapiens, 18 h, read-out: Whole Blood: IL-17A IC50): 7.70; pIC50 (IL-17A; Homo sapiens, read-out: IC50 IL-17A): 7.70; pIC50 (IL-2; Homo sapiens, 18 h, read-out: Whole Blood: IL-2 IC50): 5.31; pIC50 (IL-2; Homo sapiens, read-out: IC50 IL-2): 5.31; pIC50 (TNF-beta; Homo sapiens): 5.52; pIC50 (TNF-beta; Homo sapiens, 18 h, read-out: Whole Blood: TNF β IC50): 5.52; pIC50 (IL-4; Homo sapiens, 18 h, read-out: Whole Blood: IL-4 IC50): < 4.00; pIC50 (IL-4; Homo sapiens, read-out: IC50 IL-4): 4.00; pIC50 (IL-10; Homo sapiens, 18 h, read-out: Whole Blood: IL-10 IC50): 4.71; pIC50 (IL-10; Homo sapiens, read-out: IC50 IL-10): 4.71; pIC50 (IFN-gamma; Homo sapiens, 18 h, read-out: Whole Blood: IFNγ IC50): 6.21; pIC50 (IFN-gamma; Homo sapiens, read-out: IC50 IFNγ): 6.21; pIC50 (IL-13; Homo sapiens, 18 h, read-out: Whole Blood: IL-13 IC50): 5.82; pIC50 (IL-13; Homo sapiens, read-out: IC50 IL-13): 5.82
O=C(O)c1cc(NC(=O)c2cc(O)cc(C(=O)Nc3ccc(O)c(C(=O)O)c3)c2O)ccc1O [IIc-007a, 5-(3-(3-carboxy-4-hydroxyphenylaminocarbonyl)-2,5-dihydroxybenzamido)-2-hydroxy benzoic acid] | < 4.00 | 4.00 | 8.00 | 8.00 | 4.89 | 4.89 | 6.54 | 6.54 | < 4.00 | 4.00 | 4.75 | 4.75 | – | 6.96 | 6.96 | 6.60 | 6.60 | 93 | –
